US10882856B2 (BeiGene, Ltd., priority 2017, dated 2021)

Tests used:
IDO1 [1] = target: T1, IDO1 (Homo sapiens, UniProt P14902); assay: Hela cell-based IDO1 assay; settings: Hela cells
Procedure, shortened: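 HeLa cells were seeded at 8000 per well in 96-well plates in phenol red-free DMEM with 10% FBS. After 4 hours, DMSO-diluted compound dilutions were added with IFN-γ (final 100 ng/mL) and 0.4 mM L-Trp, and cells were kept 48 hours at 37 °C, 5% CO2. Supernatant was deproteinised with trichloroacetic acid, and kynurenine was measured at 480 nm after adding 2% 4-(dimethylamino)benzaldehyde. Potency came from four-parameter logistic fits in XLfit.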

[2] = target: T2, cellular TDO2 in HEK293-TDO2 cells (Homo sapiens, UniProt P48775); assay: 293-TDO2 cell-based assay (Kyn colorimetric); settings: 48 hours of incubation
T2 construct: expressed in transfected cells; host or cells: HEK293 (ATCC), stably transfected
T2 sequence (P48775 whole entry): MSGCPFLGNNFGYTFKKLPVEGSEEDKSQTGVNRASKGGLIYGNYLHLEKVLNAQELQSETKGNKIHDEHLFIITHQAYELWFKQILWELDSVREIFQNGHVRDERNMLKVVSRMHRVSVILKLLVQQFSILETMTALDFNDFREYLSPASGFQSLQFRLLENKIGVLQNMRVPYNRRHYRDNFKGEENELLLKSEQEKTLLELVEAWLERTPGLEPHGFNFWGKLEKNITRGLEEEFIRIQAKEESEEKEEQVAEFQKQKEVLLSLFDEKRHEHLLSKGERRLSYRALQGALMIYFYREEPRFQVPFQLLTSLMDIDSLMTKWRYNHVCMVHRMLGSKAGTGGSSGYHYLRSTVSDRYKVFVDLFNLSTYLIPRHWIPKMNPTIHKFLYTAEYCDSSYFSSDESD
Experimental: The inhibitory activity of TDO2 inhibitors is determined by using a colorimetric reaction to measure Kyn generated from L-Trp (L-Tryptophon) oxidation by cellular TDO2 in HEK293-TDO2 cells stably transfected with a plasmid expression of Tryptophan 2,3-dioxygenase (for short, 293-TDO2).
HEK293 cells were obtained from the American Type Culture Collection and 293-TDO2 were recovered in 10% FBS-containing phenol red-free DMEM medium. Cells were plated onto a 96-well plate (100 μl/well) at 10000 cells per well and kept at 37° C. in a humidified incubator supplied with 5% CO2. 4 hours later, Compounds at different concentrations diluted in dimethylsulfoxide (DMSO) were added to plate. Cells were kept at 37° C. in a humidified incubator supplied with 5% CO2. After 48 hours of incubation, 100 μl supernatant from each well was removed to a new plate. The protein in the medium was precipitated with the addition of 8 μl 6N trichloroacetic acid. The plate was incubated at 60° C. for 30 minutes and then centrifugation at 2500 rpm for 10 minutes to remove sediments. 80 μl supernatants were carefully removed to a new clean plate and added with an equal volume of 2% 4-(Dimethylamino) benzaldehyde (D2004, sigma) dissolved in glacial acetic acid. The absorbance at 480 nm wavelength derived from Kyn was measured using a PHERAstar FS plate reader (BMG LABTECH). The IC50 for each compound was derived from fitting the dose-response data to the four-parameter logistic model by using XLfit software (IDBS).

IDO1 [3] = target: T1, IDO1; assay: IDO1 enzymatic assay; assay type: biochemical; parameters: His tag (N); made in house; host or cells: E. coli; settings: read-out: Enzyme IC50 IDO1
Procedure, shortened: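 Compound was incubated with 50 nM His-tagged IDO1 from E. coli, 1.3 mM D-tryptophan, 5 mM L-ascorbic acid, methylene blue and 0.4 mg/mL catalase in 50 mM potassium phosphate pH 7.5, 0.1% BSA, at 24 °C for 1.5 hours. Activity was the slope of N'-formylkynurenine formation read continuously at 321 nm for 1 hour. IC50 was obtained from remaining activity versus compound concentration.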

T1 sequence (P14902 whole entry): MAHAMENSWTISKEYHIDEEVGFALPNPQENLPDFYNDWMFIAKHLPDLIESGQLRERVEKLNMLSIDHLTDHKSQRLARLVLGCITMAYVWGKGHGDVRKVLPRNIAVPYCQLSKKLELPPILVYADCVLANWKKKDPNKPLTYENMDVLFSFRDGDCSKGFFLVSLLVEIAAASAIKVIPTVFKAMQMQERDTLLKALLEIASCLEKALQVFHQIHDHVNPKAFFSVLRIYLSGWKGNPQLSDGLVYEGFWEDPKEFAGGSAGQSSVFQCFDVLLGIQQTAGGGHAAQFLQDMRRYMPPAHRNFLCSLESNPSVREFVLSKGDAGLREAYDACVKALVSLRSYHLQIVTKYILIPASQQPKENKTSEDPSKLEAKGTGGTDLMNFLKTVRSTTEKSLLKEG

Row | EC50 (IDO1 [1]) | EC50 [2] | IC50 (IDO1 [3]) | Structure (SMILES)
1 | 3530 nM | > 10 µM | 2200 nM | O[C@@H](c1c(C2CC2)ccc2cncn12)[C@H]1CC[C@H](c2ccc(-c3ccccc3)cc2)CC1 (single isomer, unassigned) [Example D119b]
2 | 344 nM | > 10 µM | 28 nM | NS(=O)(=O)Nc1ccc([C@H]2CC[C@H]([C@H](O)c3c(C4CC4)ccc4cncn34)CC2)cc1 [Example D165, 1-(4-((1 S,4r)-4-((S)-(6-cyclopropylimidazo[1,5-a]pyridin-5-yl)(hydroxy)methyl)cyclohexyl)phenyl) sulfuric diamide]
3 | 4620 nM | > 10 µM | 2700 nM | O[C@@H](c1c(C2CC2)ccc2cncn12)[C@H]1CC[C@H](c2ccc(F)cc2F)CC1 (single isomer, unassigned) [Example D127b]
4 | 49 nM | > 10 µM | 36 nM | OC(c1c(C2CC2)ccn2cncc12)C1CCN(c2ccc(Cl)c3ncccc23)CC1 (centres unmarked) [Example C154, (1-(8-chloroquinolin-5-yl)piperidin-4-yl)(7-cyclopropylimidazo[1,5-a]pyridin-8-yl)methanol]
5 | 6310 nM | > 10 µM | 62 nM | OC(c1cc(Cl)cc2cncn12)C1CCC(c2ccc(Cl)cc2)CC1 (centres unmarked) [Example E101, (7-chloroimidazo[1,5-a]pyridin-5-yl)(4-(4-chlorophenyl)cyclohexyl)methanol]
6 | 1480 nM | > 10 µM | 30 nM | OC(c1c(C2CC2)ccc2cncn12)C1CCC(c2ccc(C(F)(F)F)nc2)CC1 (centres unmarked) [Example D107, (6-cyclopropylimidazo[1,5-a]pyridin-5-yl)(4-(6-(trifluoromethyl)pyridin-3-yl)cyclohexyl)methanol]
7 | 378 nM | > 10 µM | 55 nM | OC(c1c(C2CC2)ccc2cncn12)C1CCC(c2cccc(F)c2F)CC1 (centres unmarked) [Example D132, (6-cyclopropylimidazo[1,5-a]pyridin-5-yl)(4-(2,3-difluorophenyl)cyclohexyl)methanol]
8 | 40 nM | > 10 µM | 30 nM | OC(c1c(C2CC2)ccc2cncn12)C1CCN(c2cccc3ncncc23)CC1 (centres unmarked) [Example D180, (6-cyclopropylimidazo[1,5-a]pyridin-5-yl)(1-(quinazolin-5-yl)piperidin-4-yl)methanol]
9 | 58 nM | > 10 µM | 28 nM | OC(c1c(C2CC2)ccc2cncn12)C1CCN(c2cccc(F)c2)CC1 (centres unmarked) [Example D172]
10 | 149 nM | > 10 µM | 55 nM | COc1ccccc1C1CCC(C(O)c2c(C3CC3)ccn3cncc23)CC1 (centres unmarked) [Example C113, (7-Cyclopropylimidazo[1,5-a]pyridin-8-yl)(4-(2-methoxyphenyl)cyclohexyl)methan]
11 | 2100 nM | > 10 µM | 1700 nM | O[C@@H](c1c(C2CC2)ccc2cncn12)[C@H]1CC[C@H](c2ccc(F)c3ccccc32)CC1 (single isomer, unassigned) [Example D137b]
12 | 6140 nM | > 10 µM | 1300 nM | O[C@@H](c1c(C2CC2)ccc2cncn12)[C@H]1CC[C@H](c2ccccc2)CC1 (single isomer, unassigned) [Example D101b]
13 | 382 nM | > 10 µM | 74 nM | OC(c1c(C2CC2)ccn2cncc12)C1CCC(c2ccc3ccccc3c2)CC1 (centres unmarked) [Example C122, (7-cyclopropylimidazo[1,5-a]pyridin-8-yl)(4-(naphthalen-2-yl)cyclohexyl)methanol]
14 | 8570 nM | > 10 µM | > 10000 nM | O[C@@H](c1c(C2CC2)ccc2cncn12)[C@H]1CC[C@H](c2ccc(Cl)c(F)c2)CC1 (single isomer, unassigned) [Example D128b]
15 | 184 nM | > 10 µM | 35 nM | OC(c1c(C2CC2)ccn2cncc12)C1CCC(c2ccc(OC3COC3)cc2)CC1 (centres unmarked) [Example C117, (7-cyclopropylimidazo[1,5-a]pyridin-8-yl)(4-(4-(oxetan-3-yloxy)phenyl)cyclohexyl)methanol]
16 | 32 nM | > 10 µM | 32 nM | OC(c1c(C2CC2)ccc2cncn12)C1CCC(c2cccc3ccccc23)CC1 (centres unmarked) [Example D135, (6-cyclopropylimidazo[1,5-a]pyridin-5-yl)(4-(naphthalen-1-yl)cyclohexyl)methanol]

Row | EC50 (IDO1 [1]) | EC50 [2] | IC50 (IDO1 [3]) | Structure (SMILES)
17 | 100 nM | > 10 µM | 87 nM | OC(c1c(C2CC2)ccn2cncc12)C1CCC(c2cccc(F)c2)CC1 (racemic) [Example C109, (7-cyclopropylimidazo[1,5-a]pyridin-8-yl)(4-(3-fluorophenyl)cyclohexyl)methanol]
18 | 351 nM | > 10 µM | 17 nM | O=C(O)c1ccc([C@H]2CC[C@H]([C@H](O)c3c(C4CC4)ccc4cncn34)CC2)cc1 (single isomer, unassigned) [Example D111a]
19 | 3700 nM | > 10 µM | 29 nM | O[C@H](c1cc(Cl)cc2cncn12)[C@H]1CC[C@H](c2ccc3ccccc3c2)CC1 (single isomer, unassigned) [Example E104a]
20 | 74 nM | > 10 µM | 26 nM | OC(c1c(C2CC2)ccn2cncc12)C1CCN(c2ccc(F)cc2)CC1 (single isomer, unassigned) [Example C137a]
21 | 5210 nM | > 10 µM | > 10000 nM | CC(C)c1ccc2cncn2c1[C@H](O)[C@H]1CC[C@H](c2ccc(F)cc2)CC1 (single isomer, unassigned) [Example D166b]
22 | 2320 nM | > 10 µM | 43 nM | OC(c1cc(Cl)cc2cncn12)C1CCC(c2cccc3ccccc23)CC1 (centres unmarked) [Example E103, (7-chloroimidazo[1,5-a]pyridin-5-yl)(4-(naphthalen-1-yl)cyclohexyl)methanol]
23 | 30 nM | > 10 µM | 15 nM | O[C@H](c1c(C2CC2)ccc2cncn12)C1CCN(c2ccc(F)cc2)CC1 (single isomer, unassigned) [Example D171a]
24 | 99 nM | > 10 µM | > 10000 nM | O[C@@H](c1c(C2CC2)ccc2cncn12)[C@H]1CC[C@H](c2ccccc2Cl)CC1 (single isomer, unassigned) [Example D117b]
25 | 18 nM | > 10 µM | 16 nM | OC(c1c(C2CC2)ccn2cncc12)C1CCN(c2ccc(Cl)c3ncccc23)CC1 (single isomer, unassigned) [Example C154a]
26 | > 10000 nM | > 10 µM | 2300 nM | N#Cc1ccc([C@H]2CC[C@H](C(O)c3c(C4CC4)ccn4cncc34)CC2)cc1 (single isomer, unassigned) [Example C106b]
27 | 20 nM | > 10 µM | 16 nM | O[C@H](c1c(C2CC2)ccn2cncc12)[C@H]1CC[C@H](c2cccc3ncccc32)CC1 (single isomer, unassigned) [Example C126a]
28 |  | > 10 µM | 110 nM | OC(c1c(C2CC2)ccn2cncc12)C1CCC(c2ccc(F)c(F)c2)CC1 (centres unmarked) [Example C131, (7-cyclopropylimidazo[1,5-a]pyridin-8-yl)(4-(3,4-difluorophenyl)cyclohexyl)methanol]
29 | 80 nM | > 10 µM | 12 nM | CC(=O)Nc1ccc([C@H]2CC[C@H]([C@H](O)c3c(C4CC4)ccc4cncn34)CC2)cc1 [Example D159, N-(4-((1S,4r)-4-((S)-(6-cyclopropylimidazo[1,5-a]pyridin-5-yl)hydroxy)methylcyclohexyl)phenyl)acetamide]
30 | > 10000 nM |  | 7500 nM | OC(c1c(C2CC2)ccc2cncn12)[C@H]1CC[C@H](c2cccc(F)c2F)CC1 (single isomer, unassigned) [Example D132b]
31 | 9.7 nM | > 10 µM |  | O[C@H](c1c(C2CC2)ccc2cncn12)C1CCN(c2ccc(Cl)c3ncccc23)CC1 (single isomer, unassigned) [Example D178a]
32 | 22 nM | > 10 µM |  | O[C@H](c1c(C2CC2)ccc2cncn12)C1CCN(c2ccccc2)CC1 (single isomer, unassigned) [Example D170a]
